# Source: patent US9167816B2, “Antimicrobial composition for inhibiting microbial organisms and the method thereof” (National Taiwan University, priority 2013, dated 2015)
# No end group written: not given here.
# Columns and labels:
# [1] = test system: C. gleosporioides MT1; format: cell-based, Colletotrichum gleosporioides; details: 2.5 mg/ml peptide, 16-20 h, 1×10^5 spores/ml
# Procedure: (§1) (A) Bacterial growth inhibited by LsGRP1-derived peptides. The bacterial suspension with an OD600 of 0.15 was treated with 2.5 mg/ml peptide solution for 90 min, and the CFUs in each peptide sample were measured at 20-24 h post treatment by serial-dilution plating Inhibition of bacterial growth (%)=[(CFUs in water treatment−CFUs in peptide treatment)/CFUs in water treatment]×100%. (B) Spore germination of plant fungal pathogens inhibited by LsGRP1-derived peptides. Fungal spores with a concentration of 1×10^5 spores/ml were treated with 2.5 mg/ml peptide for 16-20 h before the observation of spore germination under light microscope. Inhibition of fungal spore germination (%)=[(Number of spores germinating in water−Number of spores germinating in peptide solution)/Number of spores germinating in water]×100%.
# (§2) The fungi used in this study included Alternaria brassicicola Ac1, Botrytis cinerea B-134, Botrytis elliptica B061, Colletotrichum acutatum HL1, and Colletotrichum gleosporioides MT1. […]
# (§3) The antibacterial and antifungal activities of these peptides were determined by measuring the inhibition rate of bacterial growth and fungal spore germination. […] After incubation for 20-24 h, the colony-forming units (CFUs) in each peptide-treated sample were quantified. […]
# [2] = test system: spores and hyphae of A. brassicicola Ac1, B. cinerea B-134, B. elliptica B061 and C. acutatum HL1; experiment: DAPI staining of fungal spores and hyphae (chromatin condensation); format: cell-based; details: 50 μg/ml; spores 2 h, hyphae 16 h
# Procedure: (§4) The fungal spores (A) and hyphae (B) were treated with 50 μg/ml LsGRP1^C for 2 h and 16 h, respectively. Then membrane permeability, chromatin condensation and reactive oxygen species accumulation of treated spores and hyphae were assayed by staining with SYTOX Green, DAPI and H2DCFDA, respectively. Sterile deionized water was used instead of LsGRP1^C as a control. Bar=20 μm (A) or 50 μm (B).
# Fungal spore and hyphae were treated with 50 μg/ml peptide solution for 2 h and 16 h, respectively. Then the fungal cells were stained with 4′,6′-diamidino-2-phenylindole (DAPI) at a final concentration of 1 μg/ml in the dark for 10 min before observation under Leica DMIL florescent microscope equipped with a Leica A filter set (BP340-380 nm, DM 400 nm, LP425 nm). Sterile deionized water was used instead of the peptide solution as a control.
# [3] = test system: P. syringae pv. syringae 61; format: cell-based, Pseudomonas syringae pv. syringae; details: Inhibition of bacterial growth (OD600 = 0.15)
# Procedure: as §1
# (§5) The bacterial strains used in this invention included Agrobacterium tumefaciens C58C^1 (Van Larebeke et al., 1974), Bacillus subtilis 28-4, Escherichia coli DH5α (Invitrogen), Dickeya chrysanthemi TA1, Pseudomonas syringae pv. syringae 61 (Huang et al., 1988), and Xanthomonas campestris XCP3. […]
# as §3
# [4] = test system: B. subtilis 28-4; format: cell-based, Bacillus subtilis; details: Inhibition of bacterial growth (OD600 = 0.15)
# Procedure: as §1, §5, §3
# [5] = test system: B. elliptica; experiment: H2DCFDA staining (reactive oxygen species accumulation), non-germinating spores; format: cell-based, Botrytis elliptica; details: 50 μg/ml, 2 h
# Procedure: as §4
# (§6) Fungal spore and hyphae were treated with 50 μg/ml peptide solution for 2 h and 16 h, respectively. Then the fungal cells were stained with 10 μM 2′,7′-dichlorodihydrofluorescein diacetate (H2DCFDA) in the dark for 60 min before observation under Leica DMIL florescent microscope equipped with a Chroma 41012 filter set. Sterile deionized water was used instead of peptide solution as a control.
# [6] = test system: A. tumefaciens C58C^1; format: cell-based, Agrobacterium tumefaciens
# Procedure: as §1, §5, §3
# [7] = test system: B. cinerea; experiment: Disease suppression assay, gray mold; format: in vivo, Botrytis cinerea on strawberry and orchid flowers; details: different concentrations
# Procedure: (§7) The synthetic LsGRP1^C solutions of 2.5, 0.25 or 0.025 mg/ml were used. LsGRP1^C solution was dropped onto the surface of cabbage leaves. Meanwhile 5 μl spore suspension of A. brassicicola (2×10^5 conidia/ml), a fungal pathogen of cabbage black spot, was mixed with LsGRP1^C solution. In addition, fungal spore suspension was deposited before or after LsGRP1^C application. On the other hand, synthetic LsGRP1^C solution was dropped onto strawberry flowers, and then mixed with spore suspension of B. cinerea (2×10^5 conidia/ml). Similarly, synthetic LsGRP1^C solution was dropped onto tomato leaves, and then mixed with bacterial suspension of P. syringae (10^7 CFU/ml). Sterile water was used instead of LsGRP1^C solution as a control. Lesion development was examined visually.
# Synthetic LsGRP1^C solution (1 μl each) was dropped onto strawberry flowers, then mixed with 1 μl spore suspension of B. cinerea. […] LsGRP1^C solution (5 μl each) was dropped onto orchid flowers, then mixed with 5 μl spore suspension of B. cinerea.
# [8] = test system: X. campestris XCP3; format: cell-based, Xanthomonas campestris
# Procedure: as §1, §5, §3
# [9] = test system: C. acutatum HL1; format: cell-based, Colletotrichum acutatum; details: Inhibition of fungal spore germination at 5 × 10^4 spores/ml
# Procedure: as §1, with “Fungal spores with a concentration of 1×10^5 spores/ml were treated with 2.5 mg/ml peptide for 16-20 h before the observation of spore germination under light microscope.” left out
# as §2, §3
# [10] = test system: D. chrysanthemi TA1; format: cell-based, Dickeya chrysanthemi; details: 2500 μg/ml peptide, 90 min, CFUs at 20-24 h
# Procedure: as §1, §5, §3
# [11] = test system: all assayed bacterial species (six bacterial species); format: cell-based
# Procedure: as §1, §5, §3
# [12] = test system: A. brassicicola; experiment: Disease suppression assay, cabbage black spot; format: in vivo, Alternaria brassicicola on cabbage leaves; details: 7 days after inoculation
# Procedure: as §7
# Fungal inoculation was two days (−2) or one day (−1) before treatment besides at same time of the treatment. Fungal inoculation was also performed two day (2) or one day (1) after treatment.
# [13] = test system: assayed fungal species; experiment: Growth inhibition assay, fungal spore germination, statements on the assayed fungal species; format: cell-based
# Procedure: as §1, §2, §3
# [14] = test system: B. elliptica B061; format: cell-based, Botrytis elliptica; details: Inhibition of fungal spore germination at 5 × 10^4 spores/ml
# Procedure: as §1, with “Fungal spores with a concentration of 1×10^5 spores/ml were treated with 2.5 mg/ml peptide for 16-20 h before the observation of spore germination under light microscope.” left out
# as §2, §3
# [15] = test system: E. coli DH5α; format: cell-based, Escherichia coli; details: Inhibition of bacterial growth (OD600 = 0.15)
# Procedure: as §1, §5, §3
# [16] = test system: A. brassicicola Ac1; format: cell-based, Alternaria brassicicola; details: Inhibition of fungal spore germination at 5 × 10^4 spores/ml
# Procedure: as §1, §2, §3
# [17] = test system: A. brassicicola Ac1, B. cinerea B-134, B. elliptica B061 and C. acutatum HL1; experiment: H2DCFDA staining (reactive oxygen species accumulation), germinating spores; format: cell-based; details: 50 μg/ml
# Procedure: as §4, §6
# [18] = test system: assayed microbes (bacterial and fungal species); format: cell-based
# Procedure: The antibacterial and antifungal activities of these peptides were determined by measuring the inhibition rate of bacterial growth and fungal spore germination. Bacterial suspensions with an OD600 at 0.15 were treated with peptide solution for 90 min, then serially diluted and plated on LB media. After incubation for 20-24 h, the colony-forming units (CFUs) in each peptide-treated sample were quantified. The inhibition of bacterial growth (%)=[(CFUs in water treatment−CFUs in peptide treatment)/CFUs in water treatment]×100%. On the other hand, fungal spore suspensions of 1×10^5 spores/ml were treated with peptide solutions for 16-20 h, and then the spore germinations were examined under microscope. The germ tube greater than two times of spore length was considered germinated Inhibition of fungal spore germination (%)=[(Number of the spores germinating in water−Number of the spores germinating in peptide solution)/Number of the spores germinating in water]×100%. Sterile deionized water replaced the peptide solution as a control treatment. All assays were performed in triplicate. Based on the data, the concentrations of peptide for 50% growth inhibition (IC50) of each microbe were determined.
# According to the IC50 values of LsGRP1^C on different bacterial and fungal species, the antimicrobial potency of LsGRP1^C was verified.
# [19] = test system: B. cinerea B-134; format: cell-based, Botrytis cinerea
# Procedure: as §1, §2, §3
# [20] = test system: P. syringae; experiment: Disease suppression assay, bacterial leaf spot in tomato; format: in vivo, Pseudomonas syringae on tomato leaves; details: 6 days after inoculation
# Procedure: as §7
# LsGRP1^C solution (10 μl each) was dropped onto wounded tissues of tomato leaves, mixed with 10 μl bacterial suspension (10^7 CFU/ml) of pathogenic P. syringae, and then lesion development was examined 6 days after bacterial inoculation.
# [21] = test system: spores and hyphae of A. brassicicola Ac1, B. cinerea B-134, B. elliptica B061 and C. acutatum HL1; experiment: Light microscopy of treated fungal spores and hyphae; format: cell-based; details: 50 μg/ml; spores 2 h, hyphae 16 h
# [22] = 2500 μg/ml peptide, 90 min, CFUs at 20-24 h
# [23] = Inhibition of bacterial growth (OD600 = 0.15)
sequence,measurement,setting,value
GRELAEETKENTEKRATEAGVADQKY [LsGRP1^N],Inhibition of fungal spore germination,[1],not affected
same,"DAPI staining, nuclear chromatin condensation",[2],nuclear chromatin condensation
same,IC50,[3],20.63 µg/mL
same,IC50,[4],23.32 µg/mL
same,ROS accumulation (H2DCFDA) in non-germinating spores,[5],present
same,Inhibition of bacterial growth,[6]; [22],over 98.5%
same,IC50,[6]; [23],71.79 µg/mL
same,lesion development of orchid gray mold,"[7]; orchid flowers, 9 days after inoculation",could be suppressed
same,lesion development of strawberry gray mold,"[7]; strawberry flowers, 3 days after inoculation",could be suppressed
same,Inhibition of bacterial growth,[8]; [22],69.6%
same,IC50,[8]; [23],32.19 µg/mL
same,IC50,[9],17.39 µg/mL
same,Inhibition of bacterial growth,[10],over 98.5%
same,Inhibition of bacterial growth on all assayed bacterial species,"[11]; 2500 μg/ml, 90 min, CFUs at 20-24 h, all six species",more than 99.5%
same,IC50 on all assayed bacterial species except A. tumefaciens C58C^1,[11]; summary bound of Table 1,lower than 32.19 μg/ml
same,suppression of lesion development of cabbage black spot,"[12]; 0.025 mg/ml, fungal inoculation 2 days before treatment",did not occur
same,lesion development of cabbage black spot,"[12]; 0.25 mg/ml, treatment at same time or 1-2 day before/after inoculation",could be inhibited
same,"Inhibition of fungal spore germination, fungi other than B. elliptica B061","[13]; 2.5 mg/ml peptide, 16-20 h, with the exception of B. elliptica B061",did not inhibit spore germination
same,IC50 on the assayed fungal species except B. elliptica,[13]; summary bound of Table 1,below 58.26 μg/ml
same,IC50,[14],86.13 µg/mL
same,IC50,[15],9.67 µg/mL
same,IC50,[16],54.80 µg/mL
same,ROS accumulation (H2DCFDA) in germinating spores,[17],visualized
same,IC50 on all assayed microbes,[18],below 86.13 μg/ml
same,Inhibition of fungal spore germination,"[19]; 2.5 mg/ml peptide, 16-20 h, 1×10^5 spores/ml",not affected
same,IC50,[19]; Inhibition of fungal spore germination at 5 × 10^4 spores/ml,58.26 µg/mL
same,lesion development of bacterial leaf spot in tomato,[20]; 0.025 mg/ml,could inhibit lesion development
same,lesion development of bacterial leaf spot in tomato,[20]; 0.25 mg/ml,could inhibit lesion development
same,morphology of spores and hyphae under light microscope,[21],abnormal blebbing and shrinkage
